Experimental data published in patent US11952365B2, “Anti-viral compounds” (Aligos Therapeutics, Inc., priority 2020, dated 2024).
Where two headings read alike, the source gives them in different places.

Assays:
HRV3C = HRV3C (Human rhinovirus 14, UniProt P03303); assay: HRV3C protease assay (duplex, SAMDI-MS); format: biochemical, HRV; details: 30 mins preincubation
In short: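 HRV3C was preincubated 30 min with compound alongside 3CLpro at ambient temperature, then two biotinylated peptide substrates were added for 30 min. Quenching used 0.5% formic acid (final). Cleaved product was captured on neutravidin SAMDI arrays and quantified by MALDI-TOF as product/internal-standard AUC ratio; IC50 from four-parameter fit.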

[1] = test system: human beta-coronavirus OC43; assay: microbe, parasite or virus in culture; format: cell-based; details: Betacoronavirus 1, OC43, HeLa, 144 h, OC43 in HeLa cells, 6 days at 33° C., class symbols; read-out: EC50
[2] = Cytotoxicity plates without OC43 virus (cell-titer-glo); format: cell-based, human; details: human; HeLa cells without OC43 virus, class symbols
In short: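 Run as a virus-free counterpart of the OC43 cytopathic-effect assay. Attached HeLa cells received compound dilutions in EMEM with 2% FBS and were kept 6 days at 33 °C. Cell viability was then measured by CellTiter-Glo luminescence.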

[3] = test system: SARS-CoV-2-GHB-03021/2020; assay: SARS-CoV-2 Infection Model in Huh7 Cells; format: cell-based; details: Severe acute respiratory syndrome coronavirus 2, Huh-7, 96 h, SARS-CoV-2, day 4 p.i., MTS, class symbols
[4] = test system: SARS-CoV-2-GHB-03021/2020; assay: microbe, parasite or virus in culture; format: cell-based; details: Severe acute respiratory syndrome coronavirus 2, Vero C1008, 96 h; read-out: VeroE6 + CP (EC50)
human cathepsin L = biological target: T1, human cathepsin L (Homo sapiens, UniProt P07711); assay: cathepsin L assay; format: biochemical; details: 10 pM human cathepsin L, Z-FR-AMC 2 μM, class symbols
T1 construct: purchased R&D Systems
In short: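 Reactions began by adding 2 μM (final) Z-FR-AMC substrate to 10 pM human cathepsin L that had been preincubated 30 min with inhibitor. Kinetic AMC fluorescence at 355/460 nm over 30 min at 2-min intervals; four-parameter fitting gave IC50 values.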

in vitro [5] = details: human
in vitro [6] = details: African green monkey, VeroE6 + CP (CC50), Vero E6-eGFP cells with CP-100356, absence of virus, MTS
3CLpro = 3CLpro (Severe acute respiratory syndrome coronavirus 2, UniProt P0DTD1); assay: SARS-CoV-2 3CLpro protease assay (duplex, SAMDI-MS); format: biochemical; set-up: For the duplex assay, 3CLpro and HRV3C was added; details: 3CLpro, 30 mins preincubation, class symbols; read-out: SARS-Cov-2 IC50
[7] = HRV3C, class symbols, read-out: HRV IC50

| SMILES | IC50 (HRV3C; [7]) [µM] | EC50 [1] [µM] | CC50 at 6 days [2] [µM] | EC50 [3] [µM] | EC50 [4] [µM] | IC50 (human cathepsin L) [µM] | CC50 (in vitro [5]) [µM] | CC50 (in vitro [6]; numeric bounds) [µM] | IC50 (3CLpro) [µM] | IC50 (HRV3C; HRV3C, bound, read-out: HRV IC50) [µM] | IC50 (HRV3C; HRV IC50, HRV3C, bound) [µM] | CC50 (in vitro [6]; class symbols) [µM] |
| --- | --- | --- | --- | --- | --- | --- | --- | --- | --- | --- | --- | --- |
| COc1cccc2[nH]c(C(=O)N3C[C@H](c4ccccc4)C[C@H]3C(=O)N[C@@H](C[C@@H]3CCNC3=O)C(=O)CO)cc12 [Compound 32] | 0.2 to 2 | 0.1 to 1 | > 10 | 1 to 10 | 1 to 10 | ≥ 10 | > 100 | > 100 | 0.02 to 0.2 |  |  |  |
| COc1cccc2[nH]c(C(=O)N3C[C@]4(C[C@H]3C(=O)NC(C[C@@H]3CCCNC3=O)C(=O)C(=O)NCc3ccccc3)CC4(F)F)cc12 (stereo partly drawn) [Compound 33, N-benzyl-3-{[(3S,6S)-1,1-difluoro-5-(4-methoxy-1H-indole-2-carbonyl)-5-azaspiro[2.4]heptan-6-yl]formamido}-2-oxo-4-[(3S)-2-oxopiperidin-3-yl]butanamide] | 0.2 to 2 | 0.1 to 1 | > 10 | 1 to 10 | < 1 | 0.1 to 1 | > 100 | > 100 | 0.02 to 0.2 |  |  |  |
| COc1cccc2[nH]c(C(=O)N3C[C@]4(C[C@H]3C(=O)N[C@@H](C[C@@H]3CCCNC3=O)C(=O)C(=O)NC(C)C)CC4(F)F)cc12 [Compound 34] | 0.2 to 2 | 0.1 to 1 | > 10 | 10 to 100 | 1 to 10 | ≥ 10 | > 100 | > 100 | 0.02 to 0.2 |  |  |  |
| O=C(NCc1ccccc1)C(=O)[C@H](C[C@@H]1CCNC1=O)NC(=O)[C@@H]1[C@H]2CCC[C@H]2CN1C(=O)c1nc2ccccc2[nH]1 [Compound 35] | 2 to 20 | 1 to 10 | > 10 | 10 to 100 | 10 to 100 | ≥ 10 | > 100 | > 100 | 0.02 to 0.2 |  |  |  |
| COc1cccc2[nH]c(C(=O)N3C[C@@H]4CCC[C@@H]4[C@H]3C(=O)NC(C[C@@H]3CCNC3=O)C(=O)C(=O)NCc3ccccc3)nc12 (stereo partly drawn) [Compound 36, 3-[[(1S,3aR,6aS)-2-(4-methoxy-1H-1,3-benzodiazole-2-carbonyl)-hexahydro-1H-cyclopenta[c]pyrrol-1-yl]formamido]-N-benzyl-2-oxo-4-[(3S)-2-oxopyrrolidin-3-yl]butanamide] | 20 to 100 | 10 to 100 | > 10 | 10 to 100 | 10 to 100 | ≥ 10 | > 100 | > 100 | 0.02 to 0.2 |  |  |  |
| COc1cccc2[nH]c(C(=O)N3C[C@]4(C[C@H]3C(=O)NC(C[C@@H]3CCCNC3=O)C(=O)C(=O)NC3CC3)CC4(F)F)cc12 (stereo partly drawn) [Compound 38, N-cyclopropyl-3-{[(3S,6S)-1,1-difluoro-5-(4-methoxy-1H-indole-2-carbonyl)-5-azaspiro[2.4]heptan-6-yl]formamido}-2-oxo-4-[(3S)-2-oxopiperidin-3-yl]butanamide] | 0.2 to 2 | 0.1 to 1 | > 10 | 1 to 10 | 1 to 10 | < 0.1 | > 100 | > 100 | 0.02 to 0.2 |  |  |  |
| COc1cccc2[nH]c(C(=O)N3C[C@]4(C[C@H]3C(=O)N[C@@H](C[C@@H]3CCNC3=O)C(=O)CO)CC4(F)F)cc12 [Compound 39] |  | 0.1 to 1 | > 10 | 1 to 10 | 1 to 10 | ≥ 10 | > 100 | > 100 | 0.02 to 0.2 | > 10 |  |  |
| O=C(NCc1ccccc1)C(=O)C(C[C@@H]1CCNC1=O)NC(=O)[C@@H]1C[C@@H](C2CC2)CN1C(=O)c1cc2ccccc2[nH]1 (stereo partly drawn) [Compound 40, N-benzyl-3-{[(2S,4S)-4-cyclopropyl-1-(1H-indole-2-carbonyl)pyrrolidin-2-yl]formamido}-2-oxo-4-[(3S)-2-oxopyrrolidin-3-yl]butanamide] | 0.2 to 2 | 0.1 to 1 | > 10 | 1 to 10 | 1 to 10 | 0.1 to 1 | > 10 | > 100 | 0.2 to 2 |  |  |  |
| COc1cccc2[nH]c(C(=O)N3CC4(CC4)C[C@H]3C(=O)N[C@@H](C[C@@H]3CCCNC3=O)C(=O)CO)cc12 [Compound 42, (S)—N—((S)-4-hydroxy-3-oxo-1-((S)-2-oxopiperidin-3-yl)butan-2-yl)-5-(4-methoxy-1H-indole-2-carbonyl)-5-azaspiro[2.4]heptane-6-carboxamide] | 2 to 20 | 0.1 to 1 | > 10 | 1 to 10 | 1 to 10 | ≥ 10 | > 100 | > 100 | 0.02 to 0.2 |  |  |  |
| COc1cccc2[nH]c(C(=O)N3C[C@H]4[C@@H]([C@H]3C(=O)N[C@@H](C[C@@H]3CCNC3=O)C(=O)CO)C4(C)C)cc12 [Compound 43] |  | 0.1 to 1 | > 10 | 1 to 10 | 1 to 10 | ≥ 10 | > 100 | > 100 | 0.02 to 0.2 |  | > 10 |  |
| COc1cccc2[nH]c(C(=O)N3CCC4(CC4)C[C@H]3C(=O)N[C@@H](C[C@@H]3CCCNC3=O)C(=O)CO)cc12 [Compound 44] |  | 1 to 10 | > 10 | 10 to 100 | 10 to 100 | ≥ 10 | > 10 | > 100 | 0.02 to 0.2 |  | > 10 |  |
| COc1cccc2[nH]c(C(=O)N3C[C@H](C(F)(F)F)C[C@H]3C(=O)N[C@@H](C[C@@H]3CCCNC3=O)C(=O)COCc3ccccc3)cc12 [Compound 45A] | 2 to 20 | 0.1 to 1 | > 10 | 1 to 10 | 1 to 10 | ≥ 10 | > 10 |  | 0.02 to 0.2 |  |  | > 10 |
| COc1cccc2[nH]c(C(=O)N3C[C@H](C(F)(F)F)C[C@H]3C(=O)N[C@@H](C[C@@H]3CCCNC3=O)C(=O)CO)cc12 [Compound 45] | 2 to 20 | 0.1 to 1 | > 10 | 1 to 10 | < 1 | ≥ 10 | > 100 | > 100 | 0.02 to 0.2 |  |  |  |
| COc1cccc2[nH]c(C(=O)N3C[C@]4(C[C@H]3C(=O)NC(C[C@@H]3CCCNC3=O)C(=O)C(N)=O)CC4(F)F)cc12 (stereo partly drawn) [Compound 46, (3S,6S)—N-(4-amino-3,4-dioxo-1-((S)-2-oxopiperidin-3-yl)butan-2-yl)-1,1-difluoro-5-(4-methoxy-1H-indole-2-carbonyl)-5-azaspiro[2.4]heptane-6-carboxamide] | 0.2 to 2 | 10 to 100 | > 10 | 10 to 100 | 10 to 100 | 1 to 10 | > 10 | > 100 | 0.02 to 0.2 |  |  |  |
